What was measured:
[1] = tested on: Escherichia coli ATCC 9637; assay: Colistin broth microdilution MIC with potentiator compounds (Example 1); type: cell-based; conditions: E. coli ATCC 9637; MIC in the presence of 1.0% DMSO / MIC in the presence of 0.1 mM potentiator compound and 1.0% DMSO; positive = increased, negative = decreased susceptibility, 1 = no effect
[2] = tested on: Salmonella enterica subsp. enterica ATCC 14028; assay: as above; type: cell-based; conditions: S. enterica ATCC 14028; MIC in the presence of 1.0% DMSO / MIC in the presence of 0.1 mM potentiator compound and 1.0% DMSO; positive = increased, negative = decreased susceptibility, 1 = no effect
[3] = tested on: Acinetobacter baumannii ATCC 15308; assay: as above; type: cell-based; conditions: A. baumannii ATCC 15308; MIC in the presence of 1.0% DMSO / MIC in the presence of 0.1 mM potentiator compound and 1.0% DMSO; positive = increased, negative = decreased susceptibility, 1 = no effect
[4] = tested on: Pseudomonas aeruginosa PAO1; assay: as above; type: cell-based; conditions: P. aeruginosa PAO1; MIC in the presence of 1.0% DMSO / MIC in the presence of 0.1 mM potentiator compound and 1.0% DMSO; positive = increased, negative = decreased susceptibility, 1 = no effect
[5] = tested on: Enterobacter aerogenes ATCC 13048; assay: as above; type: cell-based; conditions: E. aerogenes ATCC 13048; MIC in the presence of 1.0% DMSO / MIC in the presence of 0.1 mM potentiator compound and 1.0% DMSO; positive = increased, negative = decreased susceptibility, 1 = no effect
[6] = tested on: A. baumannii ATCC 15308; assay: Broth microdilution MIC of other antibiotics with potentiator compounds (Example 2); type: cell-based, Acinetobacter baumannii
Procedure: (§1) Following the procedure of Example 1, ciprofloxacin, amikacin, levofloxacin, tigecycline, imipenem and the combination trimethoprim/sulfamethoxasole (1:19) were tested. All were purchased from Sigma-Aldrich Co.
(§2) Minimal inhibitory concentration (MIC) of the antibiotic or the test combinations were determined by the broth microdilution method.
(§3) Antibiotic stock solutions were prepared according to CLSI recommendations and sterilizing by passage through 0.20 µm filters.
(§4) Antimicrobial susceptibility testing of these isolates was performed using the broth microdilution (BMD) method, according to CLSI guidelines.
(§5) The fold increase in bacterial susceptibility to antibiotics when combined with the potentiator compound (expressed as MIC in the presence of 1.0% DMSO / MIC in the presence of 0.1 mM of each potentiator compound and 1.0% DMSO) are shown in Table 4: […]

[7] = tested on: S. maltophilia ATCC 13637; assay: as above; type: cell-based, Stenotrophomonas maltophilia
Procedure: as §1, §2, §3, §4, §5

[8] = tested on: S. maltophilia 197; assay: Colistin broth microdilution MIC with potentiator compounds, resistant clinical isolates (Example 3); type: cell-based, Stenotrophomonas maltophilia
Procedure: (§6) The potentiator effect of the compound of the invention and other compounds disclosed herein was tested using colistin sulfate as antibiotic and in combination with the enhancer compounds in front of resistant clinical isolates.
(§7) Tests were performed to determine the potentiator effect of the compound of the invention and other compounds disclosed herein with multidrug-resistant S. maltophilia and A. baumannii clinical strains as shown in Table 5: TABLE 5
(§8) For this experiment the potentiator compound was added to a colistin broth microdilution assay at a final concentration of 0.1mM. MICs were determined as described in the Example 1.
(§9) Colistin minimal inhibitory concentration (MIC), expressed in µg/mL, and the fold increase in bacterial susceptibility to colistin when combined with the potentiator compound (expressed as MIC in the presence of 1.0% DMSO / MIC in the presence of 0.1 mM of each potentiator compound and 1.0% DMSO) are shown in Table 6: […]

[9] = tested on: S. maltophilia 257; assay: as above; type: cell-based, Stenotrophomonas maltophilia; conditions: MIC in the presence of 1.0% DMSO / MIC in the presence of 0.1 mM compound and 1.0% DMSO, positive = increased susceptibility, 1 = no effect
Procedure: as §6, §7, §8, §9

[10] = tested on: S. maltophilia 53149; assay: as above; type: cell-based, Stenotrophomonas maltophilia; conditions: MIC in the presence of 1.0% DMSO / MIC in the presence of 0.1 mM compound and 1.0% DMSO, positive = increased susceptibility, 1 = no effect
Procedure: as §6, §7, §8, §9

[11] = tested on: S. maltophilia D457; assay: as above; type: cell-based, Stenotrophomonas maltophilia; conditions: MIC in the presence of 1.0% DMSO / MIC in the presence of 0.1 mM compound and 1.0% DMSO, positive = increased susceptibility, 1 = no effect
Procedure: as §6, §7, §8, §9

[12] = tested on: S. maltophilia M30; assay: as above; type: cell-based, Stenotrophomonas maltophilia
Procedure: as §6, §7, §8, §9

[13] = tested on: A. baumannii 6799; assay: as above; type: cell-based, Acinetobacter baumannii; conditions: MIC in the presence of 1.0% DMSO / MIC in the presence of 0.1 mM compound and 1.0% DMSO, positive = increased susceptibility, 1 = no effect
Procedure: as §6, §7, §8, §9

[14] = tested on: A. baumannii 6963; assay: as above; type: cell-based, Acinetobacter baumannii; conditions: MIC in the presence of 1.0% DMSO / MIC in the presence of 0.1 mM compound and 1.0% DMSO, positive = increased susceptibility, 1 = no effect
Procedure: as §6, §7, §8, §9

[15] = tested on: S. maltophilia 257; assay: Broth microdilution MIC of other antibiotics with potentiator compounds, clinical isolates (Example 4); type: cell-based, Stenotrophomonas maltophilia; conditions: MIC in 1.0% DMSO / MIC with 0.1 mM compound and 1.0% DMSO
Procedure: (§10) Following the procedure of Example 3, ciprofloxacin, amikacin, levofloxacin, imipenem and the combination trimethoprim/sulfamethoxasole (1:19) were tested. All were purchased from Sigma-Aldrich Co.
as §2, §3, §4
(§11) The fold increase in bacterial susceptibility to antibiotics when combined with the potentiator compound (expressed as MIC in the presence of 1.0% DMSO / MIC in the presence of 0.1 mM of each potentiator compound and 1.0% DMSO) are shown in Table 7: […]

[16] = tested on: A. baumannii 6799; assay: as above; type: cell-based, Acinetobacter baumannii
Procedure: as §10, §2, §3, §4, §11

[17] = tested on: A. baumannii 6963; assay: as above; type: cell-based, Acinetobacter baumannii; conditions: MIC in 1.0% DMSO / MIC with 0.1 mM compound and 1.0% DMSO
Procedure: as §10, §2, §3, §4, §11

[18] = Solubility of the stock solution in methanol; type: physicochemical; conditions: organic solvent or mixture; 100% Methanol; fairly soluble, required vigorous vortex
Procedure: Selected compound of formula I was first dissolved in 100% of Methanol (HPLC Gradient Grade CHROMASOLV. Sigma, 34885-1L-R) to 10 mM. The compound was fairly soluble in methanol up to 10 mM and required vigorous vortex.

[19] = MIC in 1.0% DMSO / MIC with 0.1 mM potentiator compound and 1.0% DMSO
[20] = Trimethoprim:sulfamethoxazole 1:19, MIC in 1.0% DMSO / MIC with 0.1 mM potentiator compound and 1.0% DMSO
[21] = MIC in the presence of 1.0% DMSO / MIC in the presence of 0.1 mM compound and 1.0% DMSO, positive = increased susceptibility, 1 = no effect
[22] = MIC in 1.0% DMSO / MIC with 0.1 mM compound and 1.0% DMSO

## CN(C)CCNC(=O)c1cccc(CNC(=O)Nc2ccc3c(c2)Cc2ccccc2-3)c1 [I, N-[2-(dimethylamino)ethyl]-3-[(9H-fluoren-2-ylcarbamoylamino)methyl]benzamide]
[1]
  Fold increase in bacterial susceptibility to colistin: +2 fold
[2]
  Fold increase in bacterial susceptibility to colistin: +2 fold
[3]
  Fold increase in bacterial susceptibility to colistin: +4 fold
[4]
  Fold increase in bacterial susceptibility to colistin: +2 fold
[5]
  Fold increase in bacterial susceptibility to colistin: +2 fold
[6]; [19]
  Fold increase in bacterial susceptibility to Imipenem: 2 fold
  Fold increase in bacterial susceptibility to Levofloxacin: 4 fold
  Fold increase in bacterial susceptibility to Tigecycline: 2 fold
[6]; [20]
  Fold increase in bacterial susceptibility to TMP/SMX: 4 fold
[7]; [19]
  Fold increase in bacterial susceptibility to Amikacin: 4 fold
  Fold increase in bacterial susceptibility to Ciprofloxacin: 2 fold
  Fold increase in bacterial susceptibility to Levofloxacin: 2 fold
[7]; [20]
  Fold increase in bacterial susceptibility to TMP/SMX: 2 fold
[8]; 0.1 mM compound
  Colistin susceptibility category according to the CLSI criteria in the presence of the compound: become sensitive to colistin
[8]; [21]
  Fold increase in bacterial susceptibility to colistin: +32 fold
[9]
  Fold increase in bacterial susceptibility to colistin: +4 fold
[10]
  Fold increase in bacterial susceptibility to colistin: +4 fold
[11]
  Fold increase in bacterial susceptibility to colistin: +2 fold
[12]; 0.1 mM compound
  Colistin susceptibility category according to the CLSI criteria in the presence of the compound: become sensitive to colistin
[12]; [21]
  Fold increase in bacterial susceptibility to colistin: +8 fold
[13]
  Fold increase in bacterial susceptibility to colistin: +8 fold
[14]
  Fold increase in bacterial susceptibility to colistin: >4 fold
[15]
  Fold increase in bacterial susceptibility to Levofloxacin: Levofloxacin (2) fold
[16]; [22]
  Fold increase in bacterial susceptibility to Amikacin: 2 fold
  Fold increase in bacterial susceptibility to Ciprofloxacin: 8 fold
  Fold increase in bacterial susceptibility to Imipenem: 4 fold
  Fold increase in bacterial susceptibility to Levofloxacin: 2 fold
[16]; Trimethoprim:sulfamethoxazole 1:19, MIC in 1.0% DMSO / MIC with 0.1 mM compound and 1.0% DMSO
  Fold increase in bacterial susceptibility to TMP/SMX: 2 fold
[17]
  Fold increase in bacterial susceptibility to Ciprofloxacin: Ciprofloxacin (2) Levofloxacin (2) Imipenem (2) fold
  Fold increase in bacterial susceptibility to Imipenem: Ciprofloxacin (2) Levofloxacin (2) Imipenem (2) fold
  Fold increase in bacterial susceptibility to Levofloxacin: Ciprofloxacin (2) Levofloxacin (2) Imipenem (2) fold
[18]
  solubility: ≤ 10 mM

— patent EP3294317B1, “ENHANCED ANTIBIOTIC COMPOSITION” (Universitat Autònoma de Barcelona, priority 2015, dated 2016)
